Data set [1] has as its target T1, Integrin alpha-V/beta-3 (Homo sapiens, UniProt P05106+P06756). The experiment in a line: Inhibition of recombinant human Integrin alphaVbeta3 using TMB as substrate incubated for 2 hrs in presence of vitronectin by ELISA. Type of data set: protein-complex assay. A general note: ELISA stands for enzyme-linked immunosorbent assay.
Data set [2] concerns the target T2, Integrin alpha-V/beta-1 (Homo sapiens, UniProt P05556+P06756). Briefly: Inhibition of recombinant human Integrin alphaVbeta1 using TMB as substrate incubated for 2 hrs in presence of fibronectin by ELISA. The class given is protein-complex assay.
Data set [3] has as its target T3, Integrin alpha-5/beta-1 (Homo sapiens, UniProt P05556+P08648). The experiment in a line: Inhibition of recombinant human Integrin alpha5beta1 using TMB as substrate incubated for 2 hrs in presence of fibronectin by ELISA. Type of data set: protein-complex assay.
The target in data set [4] is Integrin alpha-V/beta-5 (Homo sapiens, UniProt P06756+P18084). The experiment in a line: Inhibition of recombinant human Integrin alphaVbeta5 using TMB as substrate incubated for 2 hrs in presence of fibronectin by ELISA. Type of data set: protein-complex assay.
The target of data set [5] is T4, Integrin alpha-4/beta-1 (Homo sapiens, UniProt P05556+P13612). Briefly: Inhibition of recombinant human Integrin alpha4beta1 using TMB as substrate incubated for 2 hrs in presence of VCAM-1 by ELISA. Type of data set: protein-complex assay.
The target of data set [6] is T5, Integrin alpha-V/beta-8 (Homo sapiens, UniProt P06756+P26012). The experiment in a line: Inhibition of recombinant human Integrin alphaVbeta8 using TMB as substrate incubated for 2 hrs in presence of LAP by ELISA. Type of data set: protein-complex assay.
The target of data set [7] is T6, Integrin alpha-V/beta-6 (Homo sapiens, UniProt P06756+P18564). Briefly: Inhibition of recombinant human Integrin alphaVbeta6 using TMB as substrate incubated for 2 hrs in presence of LAP by ELISA. Type of data set: protein-complex assay.
The nature of data set [8]: Apparent permeability across apical to basolateral side in dog MDCK-MDR1 cells incubated for 60 mins by HPLC analysis. The class given is ADME, cell-based, Canis lupus familiaris.
Data set [9] is described as follows: Apparent permeability across basolateral to apical side in dog MDCK-MDR1 cells incubated for 60 mins by HPLC analysis. Type of data set: ADME, cell-based, Canis lupus familiaris.
In data set [10] the target is T6, Integrin alpha-V/beta-6. The experiment in a line: Inhibition of human Integrin alphaVbeta6 expressed in SW480 cells cocultured with TGF-beta expressing Mv1Lu cells assessed as inhibition of integrin alphaVbeta6 mediated TGF-beta transactivation by luciferase assay. Type of data set: cell-based.
For data set [11], the target named is T2, Integrin alpha-V/beta-1. Briefly: Inhibition of recombinant human Integrin alphaVbeta1 mediated cellular adhesion expressed in CHO-B2 cell incubated for 24 hrs in presence of Ca2+ and Mg2+ by real-time cell analysis. The class given is cell-based.
Data set [12] addresses T3, Integrin alpha-5/beta-1. Briefly: Inhibition of Integrin alpha5beta1 mediated cellular adhesion in human HCT-116 cells incubated for 24 hrs in presence of Ca2+ and Mg2+ by real-time cell analysis. Type of data set: cell-based.
The target in data set [13] is T1, Integrin alpha-V/beta-3. Briefly: Inhibition of recombinant human Integrin alphaVbeta3 mediated cellular adhesion expressed in HEK cells incubated for 24 hrs in presence of Ca2+ and Mg2+ by real-time cell analysis. The class given is cell-based.
Data set [14] concerns the target T4, Integrin alpha-4/beta-1. The experiment in a line: Inhibition of Integrin alpha4beta1 mediated cellular adhesion in human Jurkat cells incubated for 24 hrs in presence of Ca2+ and Mg2+ by real-time cell analysis. Type of data set: cell-based.
For data set [15], the target named is T5, Integrin alpha-V/beta-8. Briefly: Inhibition of Integrin alphaVbeta8 in human SNB-19 cells cocultured with TGF-beta expressing Mv1Lu cells assessed as inhibition of integrin alphaVbeta8 mediated TGF-beta transactivation by luciferase assay. The class given is cell-based.
Data set [16] has as its target T2, Integrin alpha-V/beta-1. Briefly: Inhibition of human Integrin alphaVbeta1 expressed in CHO-B2 cell cocultured with TGF-beta expressing Mv1Lu cells assessed as inhibition of integrin alphaVbeta1 mediated TGF-beta transactivation by luciferase assay. The class given is cell-based.
The target of data set [17] is Integrin alpha-8/beta-1 (Homo sapiens, UniProt P05556+P53708). The experiment in a line: Inhibition of recombinant human Integrin alpha8beta1 mediated cellular adhesion expressed in HEK cells incubated for 24 hrs in presence of Ca2+ and Mg2+ by real-time cell analysis. Type of data set: cell-based.

T4 sequence (P05556 whole entry): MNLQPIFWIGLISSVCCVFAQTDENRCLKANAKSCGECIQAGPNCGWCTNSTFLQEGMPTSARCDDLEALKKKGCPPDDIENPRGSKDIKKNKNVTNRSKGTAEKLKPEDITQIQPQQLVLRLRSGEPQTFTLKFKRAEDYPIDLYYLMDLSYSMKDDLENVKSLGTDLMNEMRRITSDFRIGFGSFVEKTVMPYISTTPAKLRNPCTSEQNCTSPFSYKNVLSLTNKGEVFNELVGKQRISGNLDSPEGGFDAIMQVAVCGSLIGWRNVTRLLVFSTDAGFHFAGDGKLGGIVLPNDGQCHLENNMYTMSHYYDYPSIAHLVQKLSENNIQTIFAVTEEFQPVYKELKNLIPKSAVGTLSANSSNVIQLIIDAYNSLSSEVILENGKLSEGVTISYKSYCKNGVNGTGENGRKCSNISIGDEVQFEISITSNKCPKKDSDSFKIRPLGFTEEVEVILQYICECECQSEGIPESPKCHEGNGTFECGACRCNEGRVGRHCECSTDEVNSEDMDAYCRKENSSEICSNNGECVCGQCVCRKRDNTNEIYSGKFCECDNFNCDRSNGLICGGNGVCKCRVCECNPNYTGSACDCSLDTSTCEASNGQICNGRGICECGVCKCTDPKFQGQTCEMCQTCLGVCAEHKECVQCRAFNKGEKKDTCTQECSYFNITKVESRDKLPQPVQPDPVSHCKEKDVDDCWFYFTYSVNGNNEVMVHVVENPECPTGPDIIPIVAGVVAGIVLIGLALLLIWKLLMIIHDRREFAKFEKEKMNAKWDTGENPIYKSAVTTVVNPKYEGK
T4 sequence (P13612 whole entry): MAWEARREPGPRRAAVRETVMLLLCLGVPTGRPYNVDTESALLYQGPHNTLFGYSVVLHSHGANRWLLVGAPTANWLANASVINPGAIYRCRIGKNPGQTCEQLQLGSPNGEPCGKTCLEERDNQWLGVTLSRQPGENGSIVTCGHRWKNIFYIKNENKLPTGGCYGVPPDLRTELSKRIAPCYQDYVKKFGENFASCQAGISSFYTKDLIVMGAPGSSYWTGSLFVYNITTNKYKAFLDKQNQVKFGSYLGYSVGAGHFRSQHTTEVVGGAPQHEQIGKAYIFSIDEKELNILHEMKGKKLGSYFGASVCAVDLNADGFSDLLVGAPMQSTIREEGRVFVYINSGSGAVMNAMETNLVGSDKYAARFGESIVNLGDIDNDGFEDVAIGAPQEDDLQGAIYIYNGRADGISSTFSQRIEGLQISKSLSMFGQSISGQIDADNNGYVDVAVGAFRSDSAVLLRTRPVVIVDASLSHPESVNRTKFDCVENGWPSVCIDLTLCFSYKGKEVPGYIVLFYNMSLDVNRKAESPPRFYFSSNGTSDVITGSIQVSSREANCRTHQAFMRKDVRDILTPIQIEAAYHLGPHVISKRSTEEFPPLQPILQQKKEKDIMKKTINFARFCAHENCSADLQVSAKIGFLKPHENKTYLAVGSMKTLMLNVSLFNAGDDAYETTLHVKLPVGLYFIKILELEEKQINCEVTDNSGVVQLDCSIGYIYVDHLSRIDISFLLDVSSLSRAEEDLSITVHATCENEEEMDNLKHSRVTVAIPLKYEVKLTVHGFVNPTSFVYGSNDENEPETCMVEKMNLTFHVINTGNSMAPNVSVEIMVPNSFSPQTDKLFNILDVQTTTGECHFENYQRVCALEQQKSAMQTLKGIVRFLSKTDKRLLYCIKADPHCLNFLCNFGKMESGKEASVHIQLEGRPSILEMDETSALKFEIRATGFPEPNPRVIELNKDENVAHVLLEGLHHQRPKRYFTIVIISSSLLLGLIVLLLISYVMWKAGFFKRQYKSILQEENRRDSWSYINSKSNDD
Chain of Integrin alpha-V/beta-5 (P06756 31-889 limits assumed): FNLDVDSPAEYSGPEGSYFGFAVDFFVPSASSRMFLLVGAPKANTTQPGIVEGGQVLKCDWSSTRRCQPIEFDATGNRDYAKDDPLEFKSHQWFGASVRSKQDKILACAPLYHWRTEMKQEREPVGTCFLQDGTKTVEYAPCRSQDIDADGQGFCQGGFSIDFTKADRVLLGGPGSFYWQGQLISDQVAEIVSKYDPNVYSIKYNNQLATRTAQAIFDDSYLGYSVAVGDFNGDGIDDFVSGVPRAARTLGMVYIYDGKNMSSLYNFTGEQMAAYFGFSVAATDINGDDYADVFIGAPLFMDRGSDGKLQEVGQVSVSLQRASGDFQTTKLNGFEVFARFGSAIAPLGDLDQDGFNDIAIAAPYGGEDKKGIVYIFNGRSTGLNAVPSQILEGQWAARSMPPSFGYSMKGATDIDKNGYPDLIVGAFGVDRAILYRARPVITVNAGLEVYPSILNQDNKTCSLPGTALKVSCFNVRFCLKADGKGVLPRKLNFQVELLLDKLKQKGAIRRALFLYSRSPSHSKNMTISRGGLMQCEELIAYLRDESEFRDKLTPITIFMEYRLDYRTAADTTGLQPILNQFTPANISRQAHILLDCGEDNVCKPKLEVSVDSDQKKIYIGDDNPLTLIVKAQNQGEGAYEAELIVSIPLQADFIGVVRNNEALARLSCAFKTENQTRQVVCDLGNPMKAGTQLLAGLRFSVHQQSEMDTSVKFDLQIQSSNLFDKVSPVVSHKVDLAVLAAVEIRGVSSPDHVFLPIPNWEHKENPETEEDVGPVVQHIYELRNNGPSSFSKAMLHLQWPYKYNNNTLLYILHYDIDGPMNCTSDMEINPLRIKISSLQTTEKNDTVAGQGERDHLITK
Chain of Integrin alpha-V/beta-5 (P06756 891-1048 limits assumed): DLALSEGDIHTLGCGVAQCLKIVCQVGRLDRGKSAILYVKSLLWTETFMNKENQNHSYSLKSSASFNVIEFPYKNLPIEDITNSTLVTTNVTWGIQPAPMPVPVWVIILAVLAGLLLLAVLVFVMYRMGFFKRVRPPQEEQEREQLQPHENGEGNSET
Chain of Integrin alpha-V/beta-5 (P18084 24-799 limits assumed): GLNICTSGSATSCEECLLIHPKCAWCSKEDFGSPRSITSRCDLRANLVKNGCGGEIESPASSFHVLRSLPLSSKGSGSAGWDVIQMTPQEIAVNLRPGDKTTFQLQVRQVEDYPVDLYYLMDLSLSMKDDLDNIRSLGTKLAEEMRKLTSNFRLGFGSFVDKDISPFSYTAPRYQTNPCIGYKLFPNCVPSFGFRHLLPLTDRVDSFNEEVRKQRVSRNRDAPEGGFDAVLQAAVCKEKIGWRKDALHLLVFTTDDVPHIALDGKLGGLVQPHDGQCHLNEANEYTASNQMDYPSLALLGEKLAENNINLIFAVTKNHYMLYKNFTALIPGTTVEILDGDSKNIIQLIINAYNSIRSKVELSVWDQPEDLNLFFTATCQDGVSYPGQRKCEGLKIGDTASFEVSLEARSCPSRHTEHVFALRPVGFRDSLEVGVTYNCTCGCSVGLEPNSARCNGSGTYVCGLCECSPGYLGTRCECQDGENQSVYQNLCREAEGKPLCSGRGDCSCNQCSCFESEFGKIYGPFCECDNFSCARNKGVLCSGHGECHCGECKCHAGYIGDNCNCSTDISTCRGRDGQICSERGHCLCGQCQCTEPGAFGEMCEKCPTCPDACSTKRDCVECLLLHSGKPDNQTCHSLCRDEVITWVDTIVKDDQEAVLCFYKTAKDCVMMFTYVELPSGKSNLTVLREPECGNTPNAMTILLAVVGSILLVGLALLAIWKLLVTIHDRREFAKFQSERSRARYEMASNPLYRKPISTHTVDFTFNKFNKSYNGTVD
T5 sequence (P06756 31-889 limits assumed): as the sequence (P06756 31-889 limits assumed) above
T5 sequence (P06756 891-1048 limits assumed): as the sequence (P06756 891-1048 limits assumed) above
T5 sequence (P26012 43-769 limits assumed): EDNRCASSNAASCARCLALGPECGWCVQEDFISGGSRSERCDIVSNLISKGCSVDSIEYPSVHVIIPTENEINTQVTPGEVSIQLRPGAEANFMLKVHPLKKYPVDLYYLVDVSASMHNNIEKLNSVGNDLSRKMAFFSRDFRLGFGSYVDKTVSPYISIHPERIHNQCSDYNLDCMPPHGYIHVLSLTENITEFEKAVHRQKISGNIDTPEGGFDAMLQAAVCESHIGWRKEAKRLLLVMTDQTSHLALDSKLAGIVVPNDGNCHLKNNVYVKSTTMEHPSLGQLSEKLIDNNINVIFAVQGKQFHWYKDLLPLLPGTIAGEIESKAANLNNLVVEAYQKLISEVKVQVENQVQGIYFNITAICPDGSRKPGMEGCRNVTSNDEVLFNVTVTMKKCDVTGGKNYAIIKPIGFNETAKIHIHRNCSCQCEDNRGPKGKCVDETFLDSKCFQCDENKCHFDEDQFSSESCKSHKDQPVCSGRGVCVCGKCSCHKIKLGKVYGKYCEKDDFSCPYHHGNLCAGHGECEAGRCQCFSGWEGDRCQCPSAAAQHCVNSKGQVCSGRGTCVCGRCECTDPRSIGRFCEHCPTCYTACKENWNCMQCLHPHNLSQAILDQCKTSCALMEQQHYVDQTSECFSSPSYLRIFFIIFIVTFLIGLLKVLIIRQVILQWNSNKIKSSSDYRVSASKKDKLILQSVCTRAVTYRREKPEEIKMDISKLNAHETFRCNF

With `O=C(Cn1c(=O)[nH]c2ncccc21)NC[C@H](NC(=O)c1c(F)cc(-c2ccccc2)cc1Cl)C(=O)O`, the IC50 in data set [1] is over 10000 nM; in data set [2] it was 31.6 nM; in data set [3], 631 nM; in data set [4] it was over 10000 nM; in data set [5], over 10000 nM; in data set [6], 6310 nM. Moreover, the IC50 in [7] was over 10000 nM.

Turning to `Cc1nc2ccccc2n1CC(=O)NC[C@H](NC(=O)c1ccccc1Cl)C(=O)O`, the IC50 in data set [2] was over 10000 nM.

`O=C(Cn1c(=O)[nH]c2ccccc21)NC[C@H](NC(=O)c1c(Cl)cccc1Cl)C(=O)O`: the IC50 is over 10000 nM in data set [1]; 20 nM in [2]; 1260 nM in [3]; over 10000 nM in data set [4]; 2000 nM in data set [5]; over 10000 nM in [6]. Also, the IC50 in data set [7] was over 10000 nM.

On to `Cc1ccc(Cl)c(C(=O)N[C@@H](CNC(=O)Cn2c(=O)[nH]c3ncccc32)C(=O)O)c1F`, for which the IC50 in data set [1] is 5010 nM; in data set [2] it was 0.631 nM; in data set [3] it was 63.1 nM; in [4], 3980 nM; in [5], 1580 nM; in data set [6], 2000 nM. The IC50 in [7] is 3980 nM.

For the molecule `O=C(CN1Cc2ccccc2NC1=O)NC[C@H](NC(=O)c1ccccc1Cl)C(=O)O`, the concentration for half-maximal inhibition (IC50) in data set [2] is 398 nM.

For `O=C(Cn1c(=O)[nH]c2ncccc21)NC[C@H](NC(=O)c1ccccc1Cl)C(=O)O`, the IC50 in [1] was over 10000 nM; in data set [2] it was 12.6 nM; in [3], 631 nM; in data set [4], over 10000 nM; in [5] it was 3160 nM; in [6] it was over 10000 nM. Also, in [7], the IC50 is 501 nM.

Turning to `Cc1cc2[nH]c(=O)n(CC(=O)NC[C@H](NC(=O)c3c(Cl)ccc(C)c3F)C(=O)O)c2cc1C`, in data set [8], the Papp A→B at 1 h turned out to be 0.8 ×10⁻⁶ cm/s. In addition, the Papp B→A at 1 h in data set [9] came to 0.6 ×10⁻⁶ cm/s. In addition, the IC50 in data set [2] is 1.58 nM.

Take `O=C(Cn1c(=O)[nH]c2ncccc21)NC[C@H](NC(=O)c1c(Cl)cccc1Cl)C(=O)O`: the IC50 in [1] is over 10000 nM; in data set [2] it was 3.98 nM; in data set [3] it was 398 nM; in [4] it was over 10000 nM; in data set [5] it was 3160 nM; in data set [6], 6310 nM. Also, the IC50 in data set [7] was over 10000 nM.

As to `Cc1ccc(Cl)c(C(=O)N[C@@H](CNC(=O)Cn2c(=O)[nH]c3cc(F)c(F)cc32)C(=O)O)c1F`, the apparent permeability from apical to basolateral (Papp A→B) at 1 h in data set [8] was 1.2 ×10⁻⁶ cm/s. Besides, the apparent permeability from basolateral to apical (Papp B→A) at 1 h in data set [9] came to 0.2 ×10⁻⁶ cm/s. Besides, the IC50 in data set [2] was 1 nM.

`Cc1ccc(Cl)c(C(=O)N[C@@H](CNC(=O)Cn2c(=O)[nH]c3ncncc32)C(=O)O)c1F`: in data set [8], the Papp A→B at 1 h amounted to 0.9 ×10⁻⁶ cm/s. Further, the Papp B→A at 1 h in data set [9] is 0.7 ×10⁻⁶ cm/s. Also, the IC50 in [2] was 0.631 nM.

On to `O=C(CN1C(=O)NCc2ccccc21)NC[C@H](NC(=O)c1ccccc1Cl)C(=O)O`, for which the IC50 in [2] is 316 nM.

As for `N=C(N)NCCCCC(=O)Nc1ccc(C[C@H](NC(=O)[C@@H]2CCCN2S(=O)(=O)c2ccccc2)C(=O)O)cc1`, the IC50 in [10] is 316 nM; in [11], 12.6 nM; in [12], 1000 nM; in data set [13], over 10000 nM; in [14] it was 34.7 nM; in [15], 1740 nM. In addition, the IC50 in [16] was 10 nM; in data set [17], 5890 nM.

For the molecule `COc1ccc(Cl)c(C(=O)N[C@@H](CNC(=O)Cn2c(=O)[nH]c3ccncc32)C(=O)O)c1F`, the Papp A→B at 1 h in data set [8] amounted to 1.2 ×10⁻⁶ cm/s. The Papp B→A at 1 h in [9] stood at 1.2 ×10⁻⁶ cm/s. In addition, the IC50 in data set [2] is 0.631 nM.

On to `O=C(Cn1c(=O)[nH]c2ncccc21)NC[C@H](NC(=O)c1c(F)cccc1Cl)C(=O)O`, for which the IC50 in [1] is over 10000 nM; in data set [2], 5.01 nM; in data set [3] it was 398 nM; in data set [4], over 10000 nM; in [5], 2510 nM; in data set [6] it was 7940 nM. Besides, the half-maximal inhibitory concentration (IC50) in data set [7] is over 10000 nM.

`O=C(NC(CNc1ccccc1)C(=O)O)c1c(Cl)cccc1Cl` (stereo not given): the half-maximal inhibitory concentration (IC50) was over 10000 nM in [1]; 200 nM in data set [2]; over 10000 nM in data set [3]; over 10000 nM in data set [4]; over 10000 nM in data set [6]; over 10000 nM in [7].

Take `O=C(Cn1cnc2ccccc21)NC[C@H](NC(=O)c1ccccc1Cl)C(=O)O`: the IC50 in [2] is over 10000 nM.

In the case of `O=C(NC(Cc1ccccc1)C(=O)O)c1ccc(Cl)cc1Cl` (stereo not given), the IC50 is over 31600 nM in data set [1]; 5010 nM in data set [2]; over 31600 nM in data set [3]; over 31600 nM in data set [4]; over 31600 nM in data set [6]; over 31600 nM in data set [7].

In the case of `Cc1cnc2[nH]c(=O)n(CC(=O)NC[C@H](NC(=O)c3c(Cl)ccc(C)c3F)C(=O)O)c2c1`, the apical-to-basolateral permeability (Papp A→B) at 1 h in data set [8] was 0.4 ×10⁻⁶ cm/s. Also, the Papp B→A at 1 h in [9] stood at 0.3 ×10⁻⁶ cm/s. Also, in data set [2], the IC50 was 79.4 nM.

For `Cc1cc(C#N)cc(C)c1C(=O)N[C@@H](CNC(=O)Cn1c(=O)[nH]c2ncccc21)C(=O)O`, the IC50 is over 10000 nM in data set [1]; 10 nM in data set [2]; 2510 nM in data set [3]; over 10000 nM in data set [4]; 5010 nM in [5]; over 10000 nM in data set [6]. The IC50 in data set [7] was over 10000 nM.

Take `O=C(CN1C(=O)Cc2ccccc21)NC[C@H](NC(=O)c1ccccc1Cl)C(=O)O`: the concentration for half-maximal inhibition (IC50) in data set [2] was over 10000 nM.

With `COc1cc(F)c(C(=O)N[C@@H](CNC(=O)Cn2c(=O)[nH]c3ncccc32)C(=O)O)c(Cl)c1`, the IC50 in data set [1] is over 10000 nM; in data set [2], 1.26 nM; in data set [3] it was 158 nM; in data set [4] it was over 10000 nM; in data set [5], 5010 nM; in [6], 3980 nM. The IC50 in data set [7] was 6310 nM.

Turning to `COc1ccc(Cl)c(C(=O)N[C@@H](CNC(=O)Cn2c(=O)[nH]c3ncccc32)C(=O)O)c1F`, the half-maximal inhibitory concentration (IC50) is over 10000 nM in data set [1]; 0.631 nM in data set [2]; 251 nM in data set [3]; over 10000 nM in data set [4]; 1580 nM in data set [5]; 1580 nM in [6]. Moreover, the IC50 in data set [7] was 3160 nM.

Turning to `O=C(NC(CNc1ccc(N2CCNC2=O)cc1)C(=O)O)c1c(Cl)cccc1Cl` (racemic), the IC50 in data set [1] was 3980 nM; in data set [2], 200 nM; in data set [3], 631 nM; in data set [4] it was 1260 nM; in [5], 200 nM; in [6], 7940 nM. Moreover, the IC50 in [7] is over 10000 nM.

As for `O=C(CCCCc1ccc2c(n1)NCCC2)NCC(NC(=O)c1c(Cl)cccc1Cl)C(=O)O` (racemic), the IC50 in data set [1] was 1 nM; in data set [2], 0.2 nM; in data set [5], 3160 nM; in data set [6] it was under 0.158 nM; in data set [7], under 0.158 nM.

As usually defined, the IC50 is the concentration needed to halve the response being measured. A word on the Papp A→B: it is how fast a substance crosses the layer from the apical side. In general, Papp B→A refers to the apparent permeability from the basolateral to the apical side of a cell layer.

These data come from ChEMBL document CHEMBL5500400, “Design and Discovery of a Potent and Selective Inhibitor of Integrin αvβ1” (J Med Chem, 2024).
